Molecules are shown by their SMILES.

In general, inhibition refers to how much of the control response was suppressed. Usually Ki stands for the equilibrium dissociation constant of an inhibitor or competing ligand from its target. Lower therefore signals tighter binding.

For the first test, the target named is T1, JNK1α1 (Homo sapiens, UniProt P45983).
T1 construct: catalytic domain containing amino acids 1-364 and N-terminal hexahistidine tag; hexahistidine (His6) (N); made in house; host or cells: E. coli BL21 (DE3)
T1 sequence (P45983 1-364): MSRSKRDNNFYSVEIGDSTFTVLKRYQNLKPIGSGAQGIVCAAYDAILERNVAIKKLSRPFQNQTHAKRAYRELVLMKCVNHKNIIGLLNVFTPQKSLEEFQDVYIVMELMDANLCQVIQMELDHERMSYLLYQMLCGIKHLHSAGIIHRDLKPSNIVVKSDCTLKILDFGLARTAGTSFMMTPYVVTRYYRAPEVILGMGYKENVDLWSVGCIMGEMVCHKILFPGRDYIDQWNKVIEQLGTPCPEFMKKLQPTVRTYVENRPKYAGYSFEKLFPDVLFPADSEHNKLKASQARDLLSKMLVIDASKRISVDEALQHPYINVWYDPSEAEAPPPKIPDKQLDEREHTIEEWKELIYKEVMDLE
As to the kind of experiment: Coupled spectrophotometric (PK/LDH) JNK1α1 assay: % inhibition and Ki determination. The test is classed as biochemical. As to conditions: @1 uM; read-out: % Inhibition JNK-1. As to the method:
% Inhibition and Ki Determination
A coupled spectrophotometric assay, coupling JNK1α1 activity to the oxidation of β-NADH to NAD+ through the action of pyruvate kinase (PK) and lactic dehydrogenase (LDH), was used to determine the potency (percent inhibition at 1 or 10 μM or Ki) of compounds against JNK1α1 (Genbank Accession Number: L26318). […] The reaction was monitored by following the decrease in absorbance at 340 nm. The initial reaction rate was determined by the slope of the change in absorbance. To calculate percent inhibition the rate of the reaction in the presence of 1 or 10 μM compound was compared to the rate of the reaction with only DMSO multiplied by 100 percent. Note, the background rate of the above reaction in the presence of 10 μM PHA-00738186 was subtracted from all rates. […] Y=(−X+Eo−(Ki*(1+A/Km))+((X−Eo+(Ki*(1+A/Km)))^2+4*Eo*(Ki*(1+A/Km)))^0.5)*(Vm*A/(Km+A)/(2*Eo)) Formula: • Parameters: Eo, Ki, A, Km, Vo • Y is initial reaction velocity; • X is inhibitor concentration; • A is [ATP]; • Ki is inhibition constant; • Vm is Vmax; • Eo is total (initial) enzyme concentration; • Km is ATP Km;
The compounds were prepared in 100% DMSO at a 40× concentration. For percent inhibition experiments this would be 400 or 40 μM for 10 and 1 μM final concentration, respectively. For the Ki determination 3× serial dilutions were made starting at 4 mM (100 μM at 1×) in DMSO. A total of 11 concentrations were used for the analysis. The compounds were added to the reaction plate first. Next, a solution containing the HEPES, MgCl2, DTT, peptide substrate, NADH, PEP, PK/LDH enzyme, and JNK1α1—364nHis enzyme was added to the assay plate. The plate was incubated at room temperature for 15 minutes. Then the plate was warmed to 30° C. for 5 minutes. The reaction was initiated with the addition of ATP. The reaction was run in a plate reader at 30° C. for 20 minutes with absorbance readings made about every 10 seconds.
The column with “#” heading refers to compound number as exemplified in the Examples section. The column with “Ki” heading refers to Ki (in nM). The column with “% Inhibition” heading refers to percent inhibition of JNK-1 at 1 μM or 10 μM (in %) unless otherwise stated. ND refers to no data was taken.
Take `O=C(NC1(CO)CCCC1)c1ccc2cnc(NC3CCC3)nc2c1` [Example 422, 2-(cyctobutylamino)-N-[1-(hydroxymethyl)cyclopentyl]quinazoline-7-carboxamide]: the inhibition at 1 µM stood at 13%.
The same measure, in the same setting: in the case of `O=C(NCCO)c1ccc2cnc(NC3CCC3)nc2c1` [Example 430, 2-(cyclobutylamino)-N-(2-hydroxyethyl)quinazoline-7-carboxamide] it was 11%.

Still in this test, the particulars now being: @10 uM; read-out: % Inhibition JNK-1.
Take `CN1CCCC(COc2cccc3cnc(N[C@H]4CC[C@H](O)CC4)nc23)C1` (stereo partly drawn) [Example 253, trans-4-({8-[(1-methylpiperidin-3-yl)methoxy]quinazolin-2-yl}amino)cyclohexanol]: the inhibition at 10 µM turned out to be 38%.

The same test, now with this note: JNK-1.
As for `CC(C)C(=O)N[C@H]1CC[C@H](Nc2ncc3cccc(OC4CCOCC4)c3n2)CC1` [Example 181, 2-methyl-N-(trans-4-{[8-(tetrahydro-2H-pyran-4-yloxy)quinazolin-2-yl]amino}cyclohexyl)propanamide], the Ki came out at 780 nM.
Turning to `CC(=O)N1CCC(c2cccc3cnc(N[C@H]4CC[C@H](O)CC4)nc23)C1` (stereo partly shown) [Example 197], the affinity, expressed as Ki, was 143 nM.
Same read-out and setting: in the case of `O=C(NC1CCOC1)c1ccc2cnc(N[C@H]3CC[C@H](O)CC3)nc2c1` (stereo partly drawn) [Example 347, 2-[(trans-4-hydroxycyclohexyl)amino]-N-(tetrahydrofuran-3-yl)quinazoline-7-carboxamide] it was 963 nM; in that of `O[C@H]1CC[C@H](Nc2ncc3cccc(OC4CCC4)c3n2)CC1` [Example 242, trans-4-{[8-(cyclobutyloxy)quinazolin-2-yl]amino}cyclohexanol], 112 nM; in that of `CC(C)[C@@H](CO)NC(=O)c1ccc2cnc(N[C@H]3CC[C@H](O)CC3)nc2c1` [Example 382, 2-[(trans-4-hydroxycyclohexyl)amino]-N-[(1S)-1-(hydroxymethyl)-2-methylpropyl]quinazoline-7-carboxamide], 195 nM.
The same measure, in the same setting: next, `CN(C)CCNC(=O)c1cccc2cnc(N[C@H]3CC[C@H](O)CC3)nc12` [Example 127, N-[2-(dimethylamino)ethyl]-2-[(trans-4-hydroxycyclohexyl)amino]quinazoline-8-carboxamide]: 3490 nM.
On the same count and under the same terms, in the case of `O[C@H]1CC[C@H](Nc2ncc3ccc(OCC4CCOCC4)cc3n2)CC1` [Example 158, trans-4-{[7-(tetrahydro-2H-pyran-4-ylmethoxy)quinazolin-2-yl]amino}cyclohexanol] it was 201 nM; in that of `c1cnc2ccc(CNc3cc4cc(-c5cn[nH]c5)ccc4cn3)cc2c1` [Example 221, 6-(1H-pyrazol-4-yl)-N-(quinolin-6-ylmethyl)isoquinolin-3-amine], 2220 nM.
`O=C(NCc1ccccc1)c1ccc2cnc(N[C@H]3CC[C@H](O)CC3)nc2c1` [Example 62, N-benzyl-2-[(trans-4-hydroxycyclohexyl)amino]quinazoline-7-carboxamide]: the affinity corresponds to a Ki of 432 nM.
For the molecule `O=C(NCC1CCCO1)c1ccc2cnc(N[C@H]3CC[C@H](O)CC3)nc2c1` (stereo partly drawn) [Example 340, 2-[(trans-4-hydroxycyclohexyl)amino]-N-(tetrahydrofuran-2-ylmethyl)quinazoline-7-carboxamide], the affinity corresponds to a Ki of 836 nM.
Still for that read-out and setting: in the case of `CNCCOc1ccc(-c2cccc3cnc(N[C@H]4CC[C@H](O)CC4)nc23)cc1` [Example 199, trans-4-[(8-{4-[2-(methylamino)ethoxy]phenyl}quinazolin-2-yl)amino]cyclohexanol] it was 98 nM; in that of `CC(C)(CO)NC(=O)c1ccc2cnc(N[C@H]3CC[C@H](O)CC3)nc2c1` [Example 352, 2-[(trans-4-hydroxycyclohexyl)amino]-N-(2-hydroxy-1,1-dimethylethyl)quinazoline-7-carboxamide], 1100 nM.
Same read-out and setting: next, `c1cc(OC2CCOCC2)c2nc(NC3CCOCC3)ncc2c1` [Example 175, N-(tetrahydro-2H-pyran-4-yl)-8-(tetrahydro-2H-pyran-4-yloxy)quinazolin-2-amine]: 880 nM.

These data come from patent publication US7998978B2 (Pfizer Inc., priority 2006, dated 2011).
